The values that follow come from US20260248135A1, “HERBICIDAL COMBINATIONS AND A METHOD FOR CONTROLLING UNDESIRED VEGETATION” (UPL Mauritius Limited, priority 2022, published 2026).

Molecules are shown by their SMILES.

Common to all, as to type: in vivo
The subject of experiment [1] is Brachiaria decumbens. Briefly: Post-emergence herbicidal efficacy, Example 1 (L-glufosinate ammonium and saflufenacil). Here is the method: (§1) Methodology: Trials were carried out to evaluate the efficacy of the combination comprising L-glufosinate ammonium and additional herbicides on Brachiaria decumbens weed.
(§2) The soil used was sandy clay loam-sand: 68.0%; silt: 8.0%; clay: 24.0%.
(§3) All treatments were in 3 replications per treatment with a spray volume of about 150 L/ha.
(§4) The expected efficacy of a combination of L-glufosinate ammonium and the other herbicides was calculated using the well-established Colby method. Any difference between the observed and “expected” efficacy could be attributed to synergy between the two compounds.
(§5) In the Colby method, the expected (or predicted) response of a combination of herbicides is calculated by taking the product of the observed response for each individual component of the combination when applied alone, divided by 100, and subtracting this value from the sum of the observed response for each component when applied alone. An unexpected enhancement in efficacy of the combination is then determined by comparing the observed response of the combination to the expected (or predicted) response as calculated from the observed response of each individual component alone. If the observed response of the combination is greater than the expected (or predicted) response, or stated conversely, if the difference between the observed and expected response is greater than zero, then the combination is said to be synergistic or unexpectedly effective (Colby, S. R., Weeds, 1967 (15), p. 20-22). The Colby method requires only a single dose of each herbicide applied alone and the mixture of both doses. The formula used to calculate the expected efficacy (EE) which was compared with the observed efficacy (OE) to determine the efficacy of the present disclosure is explained hereinbelow:
The expected efficacy for a combination of two active ingredients is as follows:
(§6) wherein, • A=Observed efficacy of active ingredient A at the same concentration as used in the mixture. • B=Observed efficacy of the active ingredient B at the same concentration as used in the mixture. • C=Observed efficacy of the active ingredient C at the same concentration as used in the mixture.
Experiment was conducted to assess the efficacy of the herbicidal combination comprising L-glufosinate ammonium and saflufenacil to control Brachiaria decumbens.
The percentage efficacy was calculated after 3, 7, 14, 21, 28 and 35 days of applications (DAA). The target weed was Brachiaria decumbens, and the results are recorded in Table 2.

Experiment [2] concerns Brachiaria decumbens. Briefly: Post-emergence herbicidal efficacy, Example 3 (L-glufosinate ammonium, saflufenacil and 2,4-D). Here is the method:
as §1, §2, §3, §4, §5
(§7) The expected efficacy for a combination of three active ingredients is as follows:
as §6
Experiment was conducted to assess the efficacy of the herbicidal combination comprising L-glufosinate ammonium, saflufenacil and 2,4-D to control the weed Brachiaria decumbens.
The target weed was Brachiaria decumbens, and the concentration of the herbicide and the results are recorded in Table 4.

Experiment [3] relates to Brachiaria decumbens. Put plainly: Post-emergence herbicidal efficacy, Example 2 (L-glufosinate ammonium, saflufenacil and triclopyr). Here is the method: as §1, §2, §3, §4, §5, §7, §6
Experiment was conducted to assess the efficacy of the herbicidal combination comprising L-glufosinate ammonium, saflufenacil and triclopyr to control the weed Brachiaria decumbens.
The percentage efficacy was calculated after 3, 7, 14, 21, 28 and 35 days of application (DAA). The target weed was Brachiaria decumbens, and the concentration of the herbicide and the results are recorded in Table 3.

In the case of `CP(=O)(O)CC[C@H](N)C(=O)O.N` [L-glufosinate ammonium], the “Observed efficacy (%) of L-glufosinate ammonium (150 g a.i./ha)” value (“Observed efficacy (%) … (150 g a.i./ha)” for short) is 65% in the experiment with Brachiaria decumbens [1] (3 DAA); 75% with Brachiaria decumbens [1] (7 DAA); 75% with Brachiaria decumbens [1] (14 DAA); 70% with Brachiaria decumbens [1] (21 DAA); 60% in the experiment on Brachiaria decumbens [1] (28 DAA); 55% in the experiment with Brachiaria decumbens [1] (35 DAA). The “Observed efficacy (%) … (150 g a.i./ha)” value in the experiment on Brachiaria decumbens [2] (3 DAA) came to 65%; with Brachiaria decumbens [2] (7 DAA), 75%; in the experiment with Brachiaria decumbens [2] (14 DAA), 75%; in the experiment with Brachiaria decumbens [2] (21 DAA), 70%; in the experiment with Brachiaria decumbens [2] (28 DAA), 65%; in the experiment on Brachiaria decumbens [2] (35 DAA) it was 60%. The “Observed efficacy (%) … (150 g a.i./ha)” value in the experiment with Brachiaria decumbens [3] (3 DAA) was found to be 65%; with Brachiaria decumbens [3] (7 DAA), 75%; in the experiment on Brachiaria decumbens [3] (14 DAA) it was 75%; in the experiment on Brachiaria decumbens [3] (21 DAA) it was 70%; in the experiment on Brachiaria decumbens [3] (28 DAA), 65%; with Brachiaria decumbens [3] (35 DAA) it was 60%.

For `O=C(O)COc1nc(Cl)c(Cl)cc1Cl` [Triclopyr], the “Observed efficacy (%) of Triclopyr (228 g a.i./ha)” value in the experiment with Brachiaria decumbens [3] (3 DAA) is given as 0%; with Brachiaria decumbens [3] (7 DAA) it was 0%; in the experiment with Brachiaria decumbens [3] (14 DAA), 20%; with Brachiaria decumbens [3] (21 DAA) it was 10%; with Brachiaria decumbens [3] (28 DAA), 5%; in the experiment with Brachiaria decumbens [3] (35 DAA), 0%.

Consider `CC(C)N(C)S(=O)(=O)NC(=O)c1cc(-n2c(=O)cc(C(F)(F)F)n(C)c2=O)c(F)cc1Cl` [Saflufenacil], for which the “Observed efficacy (%) of Saflufenacil (30 g a.i./ha)” value in the experiment on Brachiaria decumbens [1] (3 DAA) worked out at 30%; with Brachiaria decumbens [1] (7 DAA) it was 30%; in the experiment with Brachiaria decumbens [1] (14 DAA), 25%; with Brachiaria decumbens [1] (21 DAA), 10%; in the experiment on Brachiaria decumbens [1] (28 DAA) it was 0%; in the experiment with Brachiaria decumbens [1] (35 DAA), 0%. For the same molecule, the “Observed efficacy (%) of Saflufenacil (30 g a.i./ha)” value was 30% in the experiment with Brachiaria decumbens [2] (3 DAA); 30% with Brachiaria decumbens [2] (7 DAA); 20% in the experiment with Brachiaria decumbens [2] (14 DAA); 5% in the experiment with Brachiaria decumbens [2] (21 DAA); 0% in the experiment on Brachiaria decumbens [2] (28 DAA); 0% with Brachiaria decumbens [2] (35 DAA). Besides, the “Observed efficacy (%) of Saflufenacil (30 g a.i./ha)” value in the experiment on Brachiaria decumbens [3] (3 DAA) came to 30%; with Brachiaria decumbens [3] (7 DAA), 30%; with Brachiaria decumbens [3] (14 DAA) it was 20%; in the experiment on Brachiaria decumbens [3] (21 DAA), 5%; in the experiment on Brachiaria decumbens [3] (28 DAA), 0%; in the experiment on Brachiaria decumbens [3] (35 DAA) it was 0%.

Consider `O=C(O)COc1ccc(Cl)cc1Cl` [2,4-D], for which the “Observed efficacy (%) of 2,4-D (228 g a.i./ha)” value in the experiment on Brachiaria decumbens [2] (3 DAA), in the experiment on Brachiaria decumbens [2] (7 DAA), with Brachiaria decumbens [2] (14 DAA), in the experiment with Brachiaria decumbens [2] (21 DAA), in the experiment on Brachiaria decumbens [2] (28 DAA) and with Brachiaria decumbens [2] (35 DAA) was 0% in each case.
